According to patent US12398097B2, “WDR5-MYC inhibitors” (Vanderbilt University, priority 2019, dated 2025):

Biological target: WDR5 (Homo sapiens, UniProt P61964)
Assay: Competition-based fluorescence polarization anisotropy assay
Details: binding to WDR5; displacement of FITC-labeled small molecule probe (analogous to Example J2 or HCH-25) or peptide probe FITC-AHx-SEEEIDVVSV; pH 6.0; Ki converted from IC50
Method in brief: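 Competition fluorescence polarization anisotropy binding to WDR5 using a FITC-labeled peptide probe or a fluorescently labeled small-molecule probe. Buffer: 200 mM phosphate, 300 mM NaCl, 0.5 mM TCEP, 0.1% Chaps, pH 6.0. Displacement data were converted to Ki.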

SMILES	Ki [nM]
CS(=O)(=O)c1cc(NS(=O)(=O)c2cc(Br)ccc2O)cc(C2(C#N)CCC2)c1 [Example S73, 5-bromo-N-(3-(1-cyanocyclobutyl)-5-(methylsulfonyl)phenyl)-2-hydroxybenzenesulfonamide]	1030
O=C(O)CNC(=O)c1cc(OC(F)(F)F)cc(NS(=O)(=O)c2cc(Br)ccc2O)c1O [HCH-1, (3-((5-Bromo-2-hydroxyphenyl)sulfonamido)-2-hydroxy-5-(trifluoromethoxy)benzoyl)glycine]	650
O=S(=O)(Nc1cc(Cl)ccc1O)c1cccc(Br)c1 [HCH-1-9-4re, 3-Bromo-N-(5-chloro-2-hydroxyphenyl)benzenesulfonamide]	36100
O=S(=O)(Nc1cc(Cl)ccc1O)c1cc(Br)ccc1O [HCH-1-143-2, 5-Bromo-N-(5-chloro-2-hydroxyphenyl)-2-hydroxybenzenesulfonamide]	1250
CCc1cc(Br)cc(S(=O)(=O)Nc2cc(Cl)cc(C(=O)NCC3(O)CCN(C)CC3)c2O)c1O [HCH-2, 3-((5-Bromo-3-ethyl-2-hydroxyphenyl)sulfonamido)-5-chloro-2-hydroxy-N-((4-hydroxy-1-methylpiperidin-4-yl)methyl)benzamide]	600
O=S(=O)(Nc1cc(OC(F)(F)F)ccc1O)c1cc(Br)ccc1O [HCH-3-48-1, 5-Bromo-2-hydroxy-N-(2-hydroxy-5-(trifluoromethoxy)phenyl)benzenesulfonamide]	550
NC(=O)c1cc(OC(F)(F)F)cc(NS(=O)(=O)c2cc(Br)cc(CCCO)c2O)c1O [HCH-4, 3-((5-Bromo-2-hydroxy-3-(3-hydroxypropyl)phenyl)sulfonamido)-2-hydroxy-5-(trifluoromethoxy)benzamide]	580
O=C(NC1COC1)c1cc(OC(F)(F)F)cc(NS(=O)(=O)c2cc(Br)ccc2O)c1O [HCH-9, 3-((5-Bromo-2-hydroxyphenyl)sulfonamido)-2-hydroxy-N-(oxetan-3-yl)-5-(trifluoromethoxy)benzamide]	380
CCc1cc(Br)cc(S(=O)(=O)Nc2cc(Cl)cc(C(=O)O)c2O)c1O [HCH-11, 3-((5-Bromo-3-ethyl-2-hydroxyphenyl)sulfonamido)-5-chloro-2-hydroxybenzoic acid]	460
CCc1cc(NS(=O)(=O)c2cc(Br)cc(CC)c2O)c(O)c(C(=O)O)c1 [HCH-12, 3-((5-bromo-3-ethyl-2-hydroxyphenyl)sulfonamido)-5-ethyl-2-hydroxybenzoic acid]	200
CCc1cc(NS(=O)(=O)c2cc(Br)cc(OC(F)(F)F)c2O)c(O)c(C(=O)O)c1 [HCH-13, 3-((5-Bromo-2-hydroxy-3-(trifluoromethoxy)phenyl)sulfonamido)-5-ethyl-2-hydroxybenzoic acid]	220
CCc1cc(Br)cc(S(=O)(=O)Nc2cc(OC(F)(F)F)cc(C(=O)O)c2O)c1O [HCH-14, 3-((5-Bromo-3-ethyl-2-hydroxyphenyl)sulfonamido)-2-hydroxy-5-(trifluoromethoxy)benzoic acid]	130
O=C(O)c1cc(OC(F)(F)F)cc(NS(=O)(=O)c2cc(Br)cc(OC(F)(F)F)c2O)c1O [HCH-15, 3-((5-Bromo-2-hydroxy-3-(trifluoromethoxy)phenyl)sulfonamido)-2-hydroxy-5-(trifluoromethoxy)benzoic acid]	170
CCCc1cc(Br)cc(S(=O)(=O)Nc2cc(OC(F)(F)F)cc(C(=O)O)c2O)c1O [HCH-16, 3-((5-Bromo-2-hydroxy-3-propylphenyl)sulfonamido)-2-hydroxy-5-(trifluoromethoxy)benzoic acid]	110
CCCc1cc(Br)cc(S(=O)(=O)Nc2cc(Cl)cc(C(=O)O)c2O)c1O [HCH-17, 3-((5-Bromo-2-hydroxy-3-propylphenyl)sulfonamido)-5-chloro-2-hydroxybenzoic acid]	320
CCc1cc(NS(=O)(=O)c2cc(Br)ccc2O)c(O)c(C(=O)O)c1 [HCH-18, 3-((5-Bromo-2-hydroxyphenyl)sulfonamido)-5-ethyl-2-hydroxybenzoic acid]	60
CCc1cc(NS(=O)(=O)c2cc(Br)cc(F)c2O)c(O)c(C(=O)O)c1 [HCH-21, 3-((5-Bromo-3-fluoro-2-hydroxyphenyl)sulfonamido)-5-ethyl-2-hydroxybenzoic acid]	460
CCc1cc(NS(=O)(=O)c2cc(Br)cc(Cl)c2O)c(O)c(C(=O)O)c1 [HCH-22, 3-((5-Bromo-3-chloro-2-hydroxyphenyl)sulfonamido)-5-ethyl-2-hydroxybenzoic acid]	90

SMILES	Ki [nM]
O=C(O)c1cc(OC(F)(F)F)cc(NS(=O)(=O)c2cc(Br)cc(Cl)c2O)c1O [HCH-24, 3-((5-Bromo-3-chloro-2-hydroxyphenyl)sulfonamido)-2-hydroxy-5-(trifluoromethoxy)benzoic acid]	40
NC(=O)c1cc(Cl)cc(NS(=O)(=O)c2cc(Br)cc(Cl)c2O)c1O [HCH-25, 3-((5-Bromo-3-chloro-2-hydroxyphenyl)sulfonamido)-5-chloro-2-hydroxybenzamide]	270
O=C(NCCO)c1cc(OC(F)(F)F)cc(NS(=O)(=O)c2cc(Br)ccc2O)c1O [HCH-26, 3-((5-Bromo-2-hydroxyphenyl)sulfonamido)-2-hydroxy-N-(2-hydroxyethyl)-5-(trifluoromethoxy)benzamide]	250
O=C(O)c1cc(OC(F)(F)F)cc(NS(=O)(=O)c2cc(Br)cc(CCCO)c2O)c1O [HCH-27, 3-((5-Bromo-2-hydroxy-3-(3-hydroxypropyl)phenyl)sulfonamido)-2-hydroxy-5-(trifluoromethoxy)benzoic acid]	400
CCC(O)CNC(=O)c1cc(OC(F)(F)F)cc(NS(=O)(=O)c2cc(Br)cc(F)c2O)c1O (stereo not drawn) [HCH-39, 3-((5-Bromo-3-fluoro-2-hydroxyphenyl)sulfonamido)-2-hydroxy-N-(2-hydroxybutyl)-5-(trifluoromethoxy)benzamide]	320
CCc1cc(Br)cc(S(=O)(=O)Nc2cc(OC(F)(F)F)cc(C(=O)NCC(O)CC)c2O)c1O (stereo not drawn) [HCH-40, 3-((5-Bromo-3-ethyl-2-hydroxyphenyl)sulfonamido)-2-hydroxy-N-(2-hydroxybutyl)-5-(trifluoromethoxy)benzamide]	350
CCC(O)CNC(=O)c1cc(OC(F)(F)F)cc(NS(=O)(=O)c2cc(Br)cc(Cl)c2O)c1O (stereo not drawn) [HCH-41, 3-((5-Bromo-3-chloro-2-hydroxyphenyl)sulfonamido)-2-hydroxy-N-(2-hydroxybutyl)-5-(trifluoromethoxy)benzamide]	230
O=C(NCC(O)c1ccsc1)c1cc(OC(F)(F)F)cc(NS(=O)(=O)c2cc(Br)ccc2O)c1O (stereo not drawn) [HCH-43, 3-((5-Bromo-2-hydroxyphenyl)sulfonamido)-2-hydroxy-N-(2-hydroxy-2-(thiophen-3-yl)ethyl)-5-(trifluoromethoxy)benzamide]	430
CC(O)(CNC(=O)c1cc(OC(F)(F)F)cc(NS(=O)(=O)c2cc(Br)ccc2O)c1O)C1CC1 (stereo not drawn) [HCH-44, 3-((5-Bromo-2-hydroxyphenyl)sulfonamido)-N-(2-cyclopropyl-2-hydroxypropyl)-2-hydroxy-5-(trifluoromethoxy)benzamide]	430
CCC(C)(O)CNC(=O)c1cc(OC(F)(F)F)cc(NS(=O)(=O)c2cc(Br)ccc2O)c1O (stereo not drawn) [HCH-45, 3-((5-Bromo-2-hydroxyphenyl)sulfonamido)-2-hydroxy-N-(2-hydroxy-2-methylbutyl)-5-(trifluoromethoxy)benzamide]	440
CNC(=O)C(CO)NC(=O)c1cc(OC(F)(F)F)cc(NS(=O)(=O)c2cc(Br)ccc2O)c1O (stereo not drawn) [HCH-46, 3-((5-Bromo-2-hydroxyphenyl)sulfonamido)-2-hydroxy-N-(3-hydroxy-1-(methylamino)-1-oxopropan-2-yl)-5-(trifluoromethoxy)benzamide]	450
NC(=O)[C@H](CO)NC(=O)c1cc(OC(F)(F)F)cc(NS(=O)(=O)c2cc(Br)ccc2O)c1O [HCH-47, (S)—N-(1-Amino-3-hydroxy-1-oxopropan-2-yl)-3-((5-bromo-2-hydroxyphenyl)sulfonamido)-2-hydroxy-5-(trifluoromethoxy)benzamide]	260
NC(=O)C(NC(=O)c1cc(OC(F)(F)F)cc(NS(=O)(=O)c2cc(Br)ccc2O)c1O)c1ccccn1 (stereo not drawn) [HCH-49, N-(2-Amino-2-oxo-1-(pyridin-2-yl)ethyl)-3-((5-bromo-2-hydroxyphenyl)sulfonamido)-2-hydroxy-5-(trifluoromethoxy)benzamide]	320
CN1CCC(O)(CNC(=O)c2cc(OC(F)(F)F)cc(NS(=O)(=O)c3cc(Br)cc(Cl)c3O)c2O)CC1 [HCH-50, 3-((5-Bromo-3-chloro-2-hydroxyphenyl)sulfonamido)-2-hydroxy-N-((4-hydroxy-1-methylpiperidin-4-yl)methyl)-5-(trifluoromethoxy)benzamide]	210
CC(O)(CNC(=O)c1cc(OC(F)(F)F)cc(NS(=O)(=O)c2cc(Br)cc(Cl)c2O)c1O)C1CC1 (stereo not drawn) [HCH-51, 3-((5-Bromo-3-chloro-2-hydroxyphenyl)sulfonamido)-N-(2-cyclopropyl-2-hydroxypropyl)-2-hydroxy-5-(trifluoromethoxy)benzamide]	120
CC(C)C(O)CNC(=O)c1cc(OC(F)(F)F)cc(NS(=O)(=O)c2cc(Br)cc(Cl)c2O)c1O (stereo not drawn) [HCH-52, 3-((5-Bromo-3-chloro-2-hydroxyphenyl)sulfonamido)-2-hydroxy-N-(2-hydroxy-3-methylbutyl)-5-(trifluoromethoxy)benzamide]	140
O=C(NCC1(O)CCOCC1)c1cc(OC(F)(F)F)cc(NS(=O)(=O)c2cc(Br)cc(Cl)c2O)c1O [HCH-53, 3-((5-Bromo-3-chloro-2-hydroxyphenyl)sulfonamido)-2-hydroxy-N-((4-hydroxytetrahydro-2H-pyran-4-yl)methyl)-5-(trifluoromethoxy)benzamide]	170
O=C(NC1COC1)c1cc(OC(F)(F)F)cc(NS(=O)(=O)c2cc(Br)cc(Cl)c2O)c1O [HCH-54, 3-((5-Bromo-3-chloro-2-hydroxyphenyl)sulfonamido)-2-hydroxy-N-(oxetan-3-yl)-5-(trifluoromethoxy)benzamide]	140
